Legend:
[1] = target: VIM-1 (Pseudomonas aeruginosa (strain ATCC 15692 / DSM 22644 / CIP 104116 / JCM 14847 / LMG 12228 / 1C / PRS 101 / PAO1), UniProt A0A0F7KYQ8); test: biochemical; settings: CCF2-FA substrate, 2 hours at 25° C
Outline: (§1)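 IC50 values derive from 4-parameter fits of percent inhibition against inhibitor concentration on semi-log axes. Activity was monitored by fluorescence with the CCF2-FA substrate after a 2-hour, 25° C incubation of compound, enzyme and substrate.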

[2] = tested on: P. aeruginosa expressing IMP-1, efflux+ (MB9798); format: cell-based, Pseudomonas aeruginosa; settings: for P. aeruginosa expressing IMP-1, efflux+ (MB9798) MITC95: imipenem at 2 μg/mL, in the presence of a class A, C, D serine β-lactamase inhibitor closely related to relebactam; for Efflux ratio: ratio MITC95 PA_9798/MITC95 PA_9799
From the text: (§2) The strain background is Pseudomonas aeruginosa PAO1.

[3] = tested on: P. aeruginosa expressing IMP-1, efflux− (MB9799); test: Efflux: concentration of MBL inhibitor which restores susceptibility to imipenem; format: cell-based, Pseudomonas aeruginosa; settings: imipenem at 2 μg/mL, in the presence of a class A, C, D serine β-lactamase inhibitor closely related to relebactam
From the text: as §2

[4] = tested on: Klebsiella pneumoniae expressing VIM-1 (IHMA599644); format: cell-based; settings: with imipenem 1 μg/ml, 95% inhibition of bacterial growth; for Klebsiella pneumoniae MITC95: VIM-1 (IHMA599644)
Outline: (§3)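 Restoration of imipenem susceptibility (1 μg/ml imipenem) was judged by absorbance after 22–24 h at 35° C. Test compound was added to bacteria suspended 1:100 in 1.1× CAMHB from overnight blood-agar cultures.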

[5] = tested on: Serratia marcescens expressing IMP-1 (CL5741); format: cell-based; settings: with imipenem 1 μg/ml, 95% inhibition of bacterial growth; for Serratia marcescens MITC95: IMP-1 (CL5741)
Outline: as §3

[6] = tested on: Escherichia coli expressing NDM-1 (CLB30005, CLB30016); format: cell-based; settings: with imipenem 1 μg/ml, 95% inhibition of bacterial growth; for Escherichia coli MITC95: NDM-1 (CLB30016)
Outline: as §3

[7] = target: NDM-1 (Klebsiella pneumoniae, UniProt C7C422); test: biochemical; format: biochemical; settings: CCF2-FA substrate, 2 hours at 25° C; read-out: NDM-1 IC50
NDM-1, sequence (C7C422 whole entry, looked up, species assumed): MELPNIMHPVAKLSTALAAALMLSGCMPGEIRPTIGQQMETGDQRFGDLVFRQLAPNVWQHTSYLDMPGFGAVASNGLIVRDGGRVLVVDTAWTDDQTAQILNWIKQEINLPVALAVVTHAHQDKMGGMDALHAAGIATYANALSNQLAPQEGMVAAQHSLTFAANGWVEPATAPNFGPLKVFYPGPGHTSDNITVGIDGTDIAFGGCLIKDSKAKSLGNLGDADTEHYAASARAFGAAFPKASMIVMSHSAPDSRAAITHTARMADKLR
Outline: as §1

[8] = target: IMP-1 (Serratia marcescens, UniProt P52699); test: biochemical; format: biochemical; settings: CCF2-FA substrate, 2 hours at 25° C; read-out: IMP-1 IC50
IMP-1, sequence (P52699 whole entry, looked up, species assumed): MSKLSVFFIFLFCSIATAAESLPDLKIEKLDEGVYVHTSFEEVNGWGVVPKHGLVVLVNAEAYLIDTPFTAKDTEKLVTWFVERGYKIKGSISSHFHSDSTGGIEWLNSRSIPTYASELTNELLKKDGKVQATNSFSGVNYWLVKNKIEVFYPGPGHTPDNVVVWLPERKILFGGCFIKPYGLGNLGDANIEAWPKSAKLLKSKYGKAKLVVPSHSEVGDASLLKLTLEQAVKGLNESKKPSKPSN
Outline: as §1

SMILES	IC50 [1]	P. aeruginosa expressing IMP-1, efflux+ (MB9798) MITC95 [2]	Efflux ratio [2]	P. aeruginosa expressing IMP-1, efflux− (MB9799) MITC95 [3]	Klebsiella pneumoniae MITC95 [4]	Serratia marcescens MITC95 [5]	Escherichia coli MITC95 [6]	IC50 [7]	IC50 [8]	Klebsiella pneumoniae expressing VIM-1 (IHMA599644) MITC95 [4]	Serratia marcescens expressing IMP-1 (CL5741) MITC95 [5]	Escherichia coli expressing NDM-1 (CLB30016) MITC95 [6]
NCCS(=O)(=O)c1ccc(-c2cccc3[nH]c(CC(N)C(=O)O)nc23)c(-c2nn[nH]n2)c1S(N)(=O)=O (stereo not drawn) [Example 330, 2-amino-3-(4-(4-((2-aminoethyl)sulfonyl)-3-sulfamoyl-2-(2H-tetrazol-5-yl)phenyl)-1H-benzo[d]imidazol-2-yl)propanoic acid]	0.639 nM	6.25 µM	2.00	3.125 µM	6.25 µM	1.563 µM	3.125 µM	0.675 nM	3.61 nM	–	–	–
NCCS(=O)(=O)c1ccc(-c2cccc3[nH]c(=O)[nH]c23)c(-c2nnn[nH]2)c1S(N)(=O)=O [Example 300, 6-((2-aminoethyl)sulfonyl)-3-(2-oxo-2,3-dihydro-1H-benzo[d]imidazol-4-yl)-2-(1H-tetrazol-5-yl) benzenesulfonamide]	0.162 nM	1.563 µM	2.00	0.7813 µM	3.125 µM	1.563 µM	0.7813 µM	0.254 nM	0.415 nM	–	–	–
C[S+]([O-])c1ccc(-c2ccc(C3CCNCC3)cc2)c(-c2nnn[nH]2)c1S(N)(=O)=O (stereo not drawn) [Example 235, 4-(methylsulfinyl)-4′-(piperidin-4-yl)-2-(1H-tetrazol-5-yl)-[1,1′-biphenyl]-3-sulfonamide]	8.18 nM	50 µM	8.00	6.25 µM	–	–	–	31.9 nM	23.6 nM	50 µM	12.5 µM	12.5 µM
C[C@@H](N)CS(=O)(=O)c1ccc(-c2cccc3[nH]cnc23)c(-c2nn[nH]n2)c1S(N)(=O)=O [Example 359]	0.316 nM	1.563 µM	2.00	0.7813 µM	1.563 µM	1.563 µM	1.563 µM	0.286 nM	0.454 nM	–	–	–
CCOC(=O)Nc1nc2c(-c3ccc(S(=O)(=O)CCN)c(S(N)(=O)=O)c3-c3nn[nH]n3)cccc2s1 [Example 84, ethyl 4-(4-(2-aminoethylsulfonyl)-3-sulfamoyl-2-(2H-tetrazol-5-yl)phenyl)benzo[d]thiazol-2-ylcarbamate]	0.14 nM	6.25 µM	4.00	1.563 µM	–	–	–	0.0781 nM	0.145 nM	3.125 µM	1.563 µM	1.563 µM
NCCS(=O)(=O)c1ccc(-c2cccc3cn[nH]c23)c(-c2nnn[nH]2)c1S(N)(=O)=O [Example 298, 6-((2-aminoethyl)sulfonyl)-3-(1H-indazol-7-yl)-2-(1H-tetrazol-5-yl) benzenesulfonamide]	0.257 nM	1.563 µM	2.00	0.7813 µM	1.563 µM	1.563 µM	0.7813 µM	0.425 nM	0.3 nM	–	–	–
Nc1nc2c(-c3ccc(S(=O)(=O)C4CNC4)c(S(N)(=O)=O)c3-c3nn[nH]n3)cccc2o1 [Example 30, 3-(2-aminobenzo[d]oxazol-4-yl)-6-(azetidin-3-ylsulfonyl)-2-(2H-tetrazol-5-yl)benzenesulfonamide]	0.409 nM	1.563 µM	1.00	1.563 µM	–	–	–	0.0846 nM	0.585 nM	3.125 µM	1.563 µM	0.7813 µM
C[C@@H](N)CS(=O)(=O)c1ccc(-c2cccc3sc(N)nc23)c(-c2nn[nH]n2)c1S(N)(=O)=O [Example 268, 3-(2-aminobenzo[d]thiazol-4-yl)-6-((R)-2-aminopropylsulfonyl)-2-(2H-tetrazol-5-yl)benzenesulfonamide]	0.329 nM	1.563 µM	1.00	1.563 µM	3.125 µM	1.563 µM	1.563 µM	0.177 nM	0.363 nM	–	–	–
Cc1ccc(-c2ccc(S(=O)(=O)C3CNC3)c(S(N)(=O)=O)c2-c2nn[nH]n2)c2nc(N)sc12 [Example 32, 3-(2-amino-7-methylbenzo[d]thiazol-4-yl)-6-(azetidin-3-ylsulfonyl)-2-(2H-tetrazol-5-yl)benzenesulfonamide]	0.106 nM	1.563 µM	2.00	0.7813 µM	–	–	–	0.0331 nM	0.138 nM	1.563 µM	0.7813 µM	0.3906 µM
NC1CCC(c2ccc(S(=O)(=O)C3CCNCC3)c(S(N)(=O)=O)c2-c2nnn[nH]2)CC1 (stereo not drawn) [Example 206, 3-(4-aminocyclohexyl)-6-(piperidin-4-ylsulfonyl)-2-(1H-tetrazol-5-yl) benzenesulfonamide]	0.857 nM	3.125 µM	2.00	1.563 µM	–	–	–	20.3 nM	23.5 nM	3.125 µM	3.125 µM	6.25 µM
C[C@@H](N)CS(=O)(=O)c1ccc(-c2cccc3[nH]c(C(=O)O)nc23)c(-c2nn[nH]n2)c1S(N)(=O)=O [Example 348, Ammonium (R)-4-(4-((2-aminopropyl)sulfonyl)-3-sulfamoyl-2-(2H-tetrazol-5-yl)phenyl)-1H-benzo[d]imidazole-2-carboxylate]	0.478 nM	25 µM	8.00	3.125 µM	6.25 µM	3.125 µM	3.125 µM	0.163 nM	0.847 nM	–	–	–
N[C@H](CO)CS(=O)(=O)c1ccc(-c2cccc3[nH]cnc23)c(-c2nn[nH]n2)c1S(N)(=O)=O [Example 356, (R)-6-((2-amino-3-hydroxypropyl)sulfonyl)-3-(1H-benzo[d]imidazol-4-yl)-2-(2H-tetrazol-5-yl) benzenesulfonamide]	0.344 nM	1.563 µM	1.00	1.563 µM	3.125 µM	1.563 µM	1.563 µM	0.27 nM	0.496 nM	–	–	–
